Test results from patent US20250346576A1, “KCNT1 INHIBITORS COMPRISING A PYRAZOLE CORE AND METHODS OF USE” (PRAXIS PRECISION MEDICINES, INC., priority 2022, published 2025).

How the values were obtained:
KCNT1 (KNa1.1, Slack) = molecular target: T1, KCNT1 (KNa1.1, Slack) (Homo sapiens, UniProt Q5JUK3); test: KCNT1 patch clamp assay (SyncroPatch 384PE, tetracycline inducible HEK-TREX cell line); format: cell-based; conditions: WT KCNT1, HEK-TREX cells, perforated patch, step from -80 mV to 0 mV, room temperature; read-out: WT (KCNT1 inhibition IC50)
T1 construct: expressed in transfected cells; host or cells: HEK-TREX (tetracycline inducible cell line)
T1 sequence (Q5JUK3 1-1230): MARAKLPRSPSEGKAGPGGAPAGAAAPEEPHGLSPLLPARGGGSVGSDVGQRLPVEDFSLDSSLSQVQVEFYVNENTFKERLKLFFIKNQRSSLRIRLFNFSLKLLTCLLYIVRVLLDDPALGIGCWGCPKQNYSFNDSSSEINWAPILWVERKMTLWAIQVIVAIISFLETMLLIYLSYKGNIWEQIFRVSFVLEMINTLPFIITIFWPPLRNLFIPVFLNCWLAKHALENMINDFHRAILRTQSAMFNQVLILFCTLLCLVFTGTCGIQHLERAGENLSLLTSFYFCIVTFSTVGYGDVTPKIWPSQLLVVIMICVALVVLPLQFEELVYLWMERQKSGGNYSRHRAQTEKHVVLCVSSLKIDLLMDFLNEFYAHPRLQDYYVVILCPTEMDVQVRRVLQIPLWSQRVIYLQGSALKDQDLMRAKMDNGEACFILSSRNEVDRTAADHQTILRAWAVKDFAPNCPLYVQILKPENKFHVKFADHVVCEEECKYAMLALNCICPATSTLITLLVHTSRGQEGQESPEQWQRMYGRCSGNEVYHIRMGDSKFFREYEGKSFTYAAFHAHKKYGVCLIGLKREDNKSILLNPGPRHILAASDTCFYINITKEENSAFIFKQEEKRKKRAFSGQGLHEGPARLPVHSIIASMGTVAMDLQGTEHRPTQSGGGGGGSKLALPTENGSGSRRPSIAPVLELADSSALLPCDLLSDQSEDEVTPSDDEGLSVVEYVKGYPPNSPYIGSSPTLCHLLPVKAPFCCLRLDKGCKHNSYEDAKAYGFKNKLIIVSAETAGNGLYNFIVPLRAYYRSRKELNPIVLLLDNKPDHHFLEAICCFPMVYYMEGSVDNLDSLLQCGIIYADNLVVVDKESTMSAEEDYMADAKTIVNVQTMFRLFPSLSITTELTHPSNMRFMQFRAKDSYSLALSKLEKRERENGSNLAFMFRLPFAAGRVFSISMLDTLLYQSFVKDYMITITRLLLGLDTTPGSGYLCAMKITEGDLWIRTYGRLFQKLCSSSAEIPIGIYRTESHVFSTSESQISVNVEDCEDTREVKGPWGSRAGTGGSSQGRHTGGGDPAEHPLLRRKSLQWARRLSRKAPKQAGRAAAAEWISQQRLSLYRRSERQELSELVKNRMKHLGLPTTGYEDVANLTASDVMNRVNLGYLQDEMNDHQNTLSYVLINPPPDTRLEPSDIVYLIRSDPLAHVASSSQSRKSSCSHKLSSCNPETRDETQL
Description: Inhibition of KCNT1 (KNa1.1, Slack) was evaluated using a tetracycline inducible cell line (HEK-TREX). Currents were recorded using the SyncroPatch 384PE automated, patch clamp system. Pulse generation and data collection were performed with PatchController384 V1.3.0 and DataController384 V1.2.1 (Nanion Technologies). The access resistance and apparent membrane capacitance were estimated using built-in protocols. Current was recorded in perforated patch mode (10 μM escin) from a population of cells. The cells were lifted, triturated, and resuspended at 800,000 cells/ml. The cells were allowed to recover in the cell hotel prior to experimentation. Currents were recorded at room temperature. The external solution contained the following (in mM): NaCl 105, NMDG 40, KCl 4, MgCl2 1, CaCl2 5, and HEPES 10 (pH=7.4, Osmolarity ˜300 mOsm). The extracellular solution was used as the wash, reference, and compound delivery solution. The internal solution contained the following (in mM): NaCl 70, KF 70, KCl 10, EGTA 5, HEPES 5, and Escin 0.01 (pH=7.2, Osmolarity ˜295 mOsm). Escin is made at a 5 mM stock in water, aliquoted, and stored at −20° C. The compound plate was created at 2× concentrated in the extracellular solution. The compound was diluted to 1:2 when added to the recording well. The amount of DMSO in the extracellular solution was held constant at the level used for the highest tested concentration. A holding potential of −80 mV with a 100 ms step to 0 mV was used. Mean current was measured during the step to 0 mV. […] The average mean current from 3 sweeps was calculated and the percent inhibition of each compound was calculated. The percent inhibition as a function of the compound concentration was fit with a Hill equation to derive IC50, slope, minimum parameters, and maximum parameters. If KCNT1 inhibition was less than 50% at the highest tested concentration or if an IC50 could not be calculated, then a percent inhibition was reported in place of the IC50.
In this table, “A” indicates IC50 of less than or equal to 1 μM; “B” indicates inhibition of between 1 μM to 20 μM; and “C” indicates inhibition of greater than or equal to 20 μM.

[1] = Liver microsome metabolic stability assay (NADPH); format: in vitro ADME; conditions: human liver microsomes, 1.0 μM compound, 0.5 mg/ml protein, 37° C., read-out: CLint (HClint)
Description: Liver Microsome Metabolic Stability Assay (NADPH): • 1) Test compounds were incubated at 37° C. with liver microsomes (pooled from multiple donors) at 1.0 μM in the presence of NADPH (˜1.0 mM) at 0.5 mg/ml microsomal protein. • 2) Positive controls include testosterone (3A4 substrate), propafenone (2D6) and diclofenac (2C9). They are also incubated with microsomes in the presence of NADPH. • 3) Time samples (0, 5, 15, 30, 45 and 60 minutes) are removed and immediately mixed with cold acetonitrile containing internal standard (IS). Test compound incubated with microsomes without NADPH for 60 min are also included. • 4) Duplicate point for each test condition (n=2). • 5) Samples are analyzed by LC/MS/MS; disappearance of test compound is assessed base on peak area ratios of analyte/IS (no standard curve). • 6) An excel data summary, calculated intrinsic clearance and T1/2 values are provided. • 7) The following equation is used to calculate the microsome clearance: […]
The mg microsomal protein/g liver weight is 45 for 5 species. The liver weight values will use 40 g/kg, 30 g/kg, 32 g/kg, 20 g/kg and 88 g/kg for rat, monkey, dog, human and mouse, respectively. The liver clearance will be calculated using CLint(mic) with the following equation: […]

IC50 (KCNT1 (KNa1.1, Slack)) | microsomal CLint at 1 μM [1] | SMILES
≤ 1000 nM | < 9.6 µL/min/mg | Cn1nc(C(F)(F)F)cc1C(=O)NC1(c2cc(-c3ccnc(C(F)(F)F)c3)nn2C)CCC1 [Compound 1064, 1-methyl-N-(1-(1-methyl-3-(2-(trifluoromethyl)pyridin-4-yl)-1H-pyrazol-5-yl)cyclobutyl)-3-(trifluoromethyl)-1H-pyrazole-5-carboxamide]
≤ 1000 nM | < 9.6 µL/min/mg | Cn1nc(C(F)(F)F)cc1C(=O)NC(C)(C)c1cc(-c2ccnc(C(F)(F)F)c2)nn1C [Compound 1063, 1-methyl-N-(2-(1-methyl-3-(2-(trifluoromethyl)pyridin-4-yl)-1H-pyrazol-5-yl)propan-2-yl)-3-(trifluoromethyl)-1H-pyrazole-5-carboxamide]
